Test results reported in PMC12524402, “Cobalt(II) Complexes of 4′-Bromo-Fenamic Acid: Antioxidant Properties, Antibacterial Activity, and Interaction with DNA and Albumins” (International Journal of Molecular Sciences, 2025).

Legend:
[1] = biological target: T1, BSA (bovine serum albumin) (Bos taurus, UniProt P02769); assay: tryptophan fluorescence quenching (excitation […] nm), Scatchard plot; type: binding; settings: read-out: K(BSA) (converted)
T1 construct: gene ALB; commercial native serum albumin (Sigma-Aldrich), mature secreted protein, catalogue number not given

[2] = biological target: T2, HSA (human serum albumin) (Homo sapiens, UniProt P02768); assay: as above; type: binding; settings: read-out: K(HSA) (converted)
T2 construct: gene ALB; commercial serum albumin (Sigma-Aldrich), mature secreted protein, catalogue number not given
T2 sequence (P02768 25-609): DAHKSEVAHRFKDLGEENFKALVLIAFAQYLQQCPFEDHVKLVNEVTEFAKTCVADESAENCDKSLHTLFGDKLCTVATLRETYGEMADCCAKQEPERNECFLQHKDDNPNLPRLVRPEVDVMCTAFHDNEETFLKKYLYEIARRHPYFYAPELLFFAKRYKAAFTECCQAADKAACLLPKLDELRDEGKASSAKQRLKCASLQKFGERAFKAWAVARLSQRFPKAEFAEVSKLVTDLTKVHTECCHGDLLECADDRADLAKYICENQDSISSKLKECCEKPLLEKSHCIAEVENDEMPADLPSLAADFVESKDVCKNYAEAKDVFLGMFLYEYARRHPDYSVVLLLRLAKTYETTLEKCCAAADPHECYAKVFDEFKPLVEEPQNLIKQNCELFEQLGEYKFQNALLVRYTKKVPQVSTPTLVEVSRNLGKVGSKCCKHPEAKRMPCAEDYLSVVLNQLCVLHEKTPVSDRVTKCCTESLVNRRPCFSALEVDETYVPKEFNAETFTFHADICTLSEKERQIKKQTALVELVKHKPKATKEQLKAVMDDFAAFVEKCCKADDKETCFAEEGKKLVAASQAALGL

T1 sequence (P02769 25-607): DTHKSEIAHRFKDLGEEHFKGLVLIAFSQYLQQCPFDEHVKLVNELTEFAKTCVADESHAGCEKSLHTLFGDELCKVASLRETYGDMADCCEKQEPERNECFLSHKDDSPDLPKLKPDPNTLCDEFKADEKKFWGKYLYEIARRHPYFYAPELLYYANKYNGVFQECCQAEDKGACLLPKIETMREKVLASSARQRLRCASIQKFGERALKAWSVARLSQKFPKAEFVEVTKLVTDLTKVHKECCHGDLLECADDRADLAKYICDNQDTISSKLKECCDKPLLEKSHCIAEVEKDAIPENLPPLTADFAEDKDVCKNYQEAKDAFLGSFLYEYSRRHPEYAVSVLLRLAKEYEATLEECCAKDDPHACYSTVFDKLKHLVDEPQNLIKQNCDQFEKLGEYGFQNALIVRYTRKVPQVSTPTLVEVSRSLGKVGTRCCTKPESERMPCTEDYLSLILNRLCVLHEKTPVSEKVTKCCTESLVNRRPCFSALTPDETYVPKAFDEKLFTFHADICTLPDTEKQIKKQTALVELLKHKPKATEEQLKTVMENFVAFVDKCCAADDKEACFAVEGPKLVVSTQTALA

For `O=C(O)c1ccccc1Nc1ccc(Br)cc1` [4′-Br-fenH], the Kd [1] was 3.68 µM and the Kd [2] was 3.7 µM.
